Reference: ChEMBL document CHEMBL1914447, “Novel orally active antimalarial thiazoles” (J Med Chem, 2011)
Converted amounts (≈) assume the structure as drawn.

Key:
[1] = Kinetic solubility of the compound by nephelometry at pH 6.5; format: physicochemical; details: buffer, read-out: Kinetic_solubility
[2] = system: Liver microsomes; test: Metabolic stability in rat liver microsomes at 1 uM by LC-MS analysis; format: ADME, Microsome
[3] = Lipophilicity, log D of the compound by gradient HPLC at pH 3.0; format: physicochemical; details: buffer
[4] = system: Plasmodium falciparum; test: microbe, parasite or virus in culture; details: NF54
[5] = Lipophilicity, log D of the compound by gradient HPLC at pH 7.4; format: physicochemical; details: buffer
[6] = system: Liver microsomes; test: Metabolic stability in human liver microsomes at 1 uM by LC-MS analysis; format: ADME, Microsome
[7] = system: Plasmodium falciparum; test: microbe, parasite or virus in culture; details: K1
[8] = system: Liver; test: Metabolic stability in mouse liver microsomes at 1 uM by LC-MS analysis; format: ADME, Microsome
[9] = Kinetic solubility of the compound by nephelometry at pH 2.0; format: physicochemical; details: buffer, read-out: Kinetic_solubility
[10] = system: Plasmodium berghei; test: Antimalarial activity against GFP-transfected Plasmodium berghei ANKA infected in NMRI mouse assessed as reduction in parasitemia at 100 mg/kg, po administered as single dose after 72 hrs by flow cytometry; format: functional; parameters: scale not given: the % may be the effect or the level left
[11] = system: Plasmodium berghei; test: Antimalarial activity against GFP-transfected Plasmodium berghei ANKA infected in NMRI mouse assessed as mean survival time at 30 mg/kg, po administered as single dose; format: functional
[12] = system: Plasmodium berghei; test: Antimalarial activity against GFP-transfected Plasmodium berghei ANKA infected in NMRI mouse assessed as mean survival time at 10 mg/kg, po administered as single dose; format: functional
[13] = system: Plasmodium berghei; test: Antimalarial activity against GFP-transfected Plasmodium berghei ANKA infected in NMRI mouse assessed as reduction in parasitemia at 30 mg/kg, po administered as single dose after 72 hrs by flow cytometry; format: functional; parameters: scale not given: the % may be the effect or the level left
[14] = system: Plasmodium berghei; test: Antimalarial activity against GFP-transfected Plasmodium berghei ANKA infected in NMRI mouse assessed as reduction in parasitemia at 10 mg/kg, po administered as single dose after 72 hrs by flow cytometry; format: functional; parameters: scale not given: the % may be the effect or the level left
[15] = system: Plasmodium berghei; test: Antimalarial activity against GFP-transfected Plasmodium berghei ANKA infected in po dosed NMRI mouse assessed as reduction in parasitemia administered as single dose after 72 hrs by flow cytometry; format: functional
[16] = system: Plasmodium berghei; test: Antimalarial activity against GFP-transfected Plasmodium berghei ANKA infected in NMRI mouse assessed as mean survival time at 100 mg/kg, po administered as single dose; format: functional

SMILES	solubility kinetic [1] [µg/mL]	Stability [2]	chromatographic logD [3]	IC50 [4] [µM]	chromatographic logD [5]	Stability [6]	IC50 [7] [µM]	Stability [8]	solubility kinetic [9] [µg/mL]	Activity [10] [%]	MSD [11] [days]	MSD [12] [days]	Activity [13] [%]	Activity [14] [%]	ED50 [15] [mg/kg]	ED90 [15] [mg/kg]	MSD [16] [days]
CC(C)(C)c1cc(C(=O)Nc2cccnc2)n(Cc2ccccc2)n1	6.3 (≈ 18.8 µM)	Unstable	3.5	4.99	3.8	Unstable	6.45	Unstable	> 100	–	–	–	–	–	–	–	–
CC(C)(C)c1cc(C(=O)Nc2ccncc2)n(Cc2ccccc2)n1	6.3 (≈ 18.8 µM)	Unstable	2.6	3.88	4	Unstable	7.05	Unstable	> 100	–	–	–	–	–	–	–	–
CC(C)(C)c1cc(C(=O)Nc2ccccn2)n(Cc2ccccc2)n1	6.3 (≈ 18.8 µM)	Unstable	4.5	10.5	4.5	Unstable	10.2	Unstable	25 (≈ 74.8 µM)	–	–	–	–	–	–	–	–
CC(C)(C)c1cc(C(=O)Nc2ccccc2)n(Cc2ccccc2)n1	1.6 (≈ 4.8 µM)	Unstable	4.7	7.92	4.7	Unstable	11	Unstable	1.6 (≈ 4.8 µM)	–	–	–	–	–	–	–	–
Cc1csc(NC(=O)c2cc(C(C)(C)C)nn2Cc2ccccc2)n1	< 1.6	Unstable	4.7	4.12	4.7	Unstable	4.94	Unstable	< 1.6	–	–	–	–	–	–	–	–
CC(C)(C)c1cc(C(=O)Nc2cccc(CN)c2)n(Cc2ccccc2)n1	25 (≈ 69 µM)	Stable	2.2	2.15	2.9	Stable	1.47	Stable	> 100	–	–	–	–	–	–	–	–
CC(=O)NCc1csc(NC(=O)c2cc(C(C)(C)C)nn2Cc2ccccc2)n1	12.5 (≈ 30.4 µM)	Unstable	3.3	6.24	3.3	Unstable	4.27	Unstable	12.5 (≈ 30.4 µM)	–	–	–	–	–	–	–	–
CC(C)(C)c1cc(C(=O)Nc2nc(CNS(C)(=O)=O)cs2)n(Cc2ccccc2)n1	3.1 (≈ 6.93 µM)	Unstable	3.7	4.68	3.7	Unstable	2.93	Unstable	3.1 (≈ 6.93 µM)	–	–	–	–	–	–	–	–
CN(C)Cc1csc(NC(=O)c2cc(C(C)(C)C)nn2Cc2ccccc2)n1	25 (≈ 62.9 µM)	Unstable	2.6	2.41	4.2	Unstable	1.48	Unstable	> 100	–	–	–	–	–	–	–	–
CNCc1csc(NC(=O)c2cc(C(C)(C)C)nn2Cc2ccccc2)n1	12.5 (≈ 32.6 µM)	Stable	2.6	0.16	3.8	Stable	0.19	Stable	25 (≈ 65.2 µM)	–	–	–	–	–	–	–	–
CC(C)(C)c1cc(C(=O)Nc2nc(CO)cs2)n(Cc2ccccc2)n1	3.1 (≈ 8.37 µM)	Unstable	3.5	0.71	3.4	Unstable	0.67	Unstable	12.5 (≈ 33.7 µM)	–	–	–	–	–	–	–	–
Cn1nc(C(C)(C)C)cc1C(=O)Nc1nc(CN)cs1	50 (≈ 170 µM)	–	1.2	> 34.1	1.6	–	34.1	–	> 100	–	–	–	–	–	–	–	–
NCc1csc(NC(=O)c2ccn[nH]2)n1	> 100	–	0	> 44.8	0.1	–	> 44.8	–	> 100	–	–	–	–	–	–	–	–
NCc1csc(NC(=O)c2cc3ccccc3o2)n1	50 (≈ 183 µM)	–	1.1	> 36.6	1.5	–	36.6	–	> 100	–	–	–	–	–	–	–	–
NCc1csc(NC(=O)c2cc3ccccc3n2Cc2ccccc2)n1	1.6 (≈ 4.41 µM)	–	2.4	10.3	3	–	6.98	–	25 (≈ 69 µM)	–	–	–	–	–	–	–	–
COc1ccc(C(=O)Nc2nc(CN)cs2)cc1	25 (≈ 94.9 µM)	–	0.9	13.1	1.2	–	11.1	–	50 (≈ 190 µM)	–	–	–	–	–	–	–	–
NCc1csc(NC(=O)c2cccnn2)n1	50 (≈ 213 µM)	–	0	> 42.5	0.2	–	42.5	–	> 100	–	–	–	–	–	–	–	–
NCc1csc(NC(=O)c2ccon2)n1	50 (≈ 223 µM)	–	0	> 44.6	-0.1	–	> 44.6	–	50 (≈ 223 µM)	–	–	–	–	–	–	–	–
NCc1csc(NC(=O)c2cc3ccccc3[nH]2)n1	25 (≈ 91.8 µM)	–	1.1	30.4	1.4	–	22.2	–	> 100	–	–	–	–	–	–	–	–
NCc1csc(NC(=O)c2ccccc2)n1	25 (≈ 107 µM)	–	0.7	> 42.9	1	–	42.9	–	> 100	–	–	–	–	–	–	–	–
NCc1csc(NC(=O)c2ccc(Cl)cc2)n1	25 (≈ 93.4 µM)	–	1.2	> 37.5	1.6	–	37.5	–	> 100	–	–	–	–	–	–	–	–
NCc1csc(NC(=O)c2ccccn2)n1	> 100	–	0.3	> 42.7	0.7	–	> 42.7	–	> 100	–	–	–	–	–	–	–	–
NCc1csc(NC(=O)c2ncccn2)n1	> 100	–	-0.2	> 42.5	-0.1	–	> 42.5	–	> 100	–	–	–	–	–	–	–	–
NCc1csc(NC(=O)c2cnn[nH]2)n1	> 100	–	-0.2	> 44.6	-0.3	–	> 44.6	–	> 100	–	–	–	–	–	–	–	–
NCc1csc(NC(=O)c2cnnn2Cc2ccccc2)n1	50 (≈ 159 µM)	–	1.3	> 3.18	1.6	–	> 3.18	–	> 100	–	–	–	–	–	–	–	–
NCc1csc(NC(=O)c2cn(Cc3ccccc3)nn2)n1	25 (≈ 79.5 µM)	–	1.1	> 3.18	1.4	–	> 3.18	–	50 (≈ 159 µM)	–	–	–	–	–	–	–	–
C[C@H]1[C@H](OC(=O)CCC(=O)O)O[C@@H]2O[C@@]3(C)CC[C@H]4[C@H](C)CC[C@@H]1[C@@]24OO3 [ARTESUNATE]	–	–	–	0.004	–	–	0.003	–	–	–	–	–	–	–	–	–	–
CCN(CC)CCCC(C)Nc1ccnc2cc(Cl)ccc12 (centres undefined) [CHLOROQUINE]	–	–	–	–	–	–	–	–	–	>99.9	9	7	99.7	99.5	1.9	4.2	12
